3 molecules from patent US5989874A, “Humectant, antistatic agent, dispersant and film-forming agent having polysaccharide as active principle, preparation process of polysaccharides, and Kliebsiella ocytoca TNM-3 strain” (Tayca Corporation, priority 1995, dated 1999) can be followed below.

One data set concerns skin. To be noted: 4% (w/v) aqueous solution.
Data set [1] is described as follows: Moisture retention in high-humidity environment. Format: physicochemical. The following applies: relative humidity 92.9%, 30° C., 3 days. The method, then:
The above operations were carried out at a constant temperature of 30° C.

A short description of data set [2]: Moisture retainability in low-humidity environment. The format is physicochemical. To be noted: relative humidity 20%, 20° C., 3 days.
Method: The above operations were carried out at a constant temperature of 20° C.
The sample weight was measured periodically and he moisture retention percentagewas calculated from the following equation.
Moisture retention percentage(%)=(A-B)/B×100 (wherein A is sample weight when it became constant, and B is dry sample weight).
For data set [3], the system named is mushroom-derived tyrosinase. The experiment in a line: Tyrosinase-inhibitory activity. To be noted: relative values to kojic acid = 1.0; 0.1 ml of 300 μg/ml solution; L-tyrosine; 25° C., 10 minutes, pH 6.5. Format: biochemical. Here is the method:
Absorbance at 475 nm was measured by an ultraviolet visible spectrophotometer. The above process was repeated without adding the polysaccharide, and the absorbance was measured in the similar way and given as blank. The above process was further carried out using the polysaccharide obtained in Example 3. […] The tyrosinase inhibition rate was calculated from the following equation. […] Tyrosinase inhibition rate=(OD2 -OD1)/OD2 ×100 wherein OD1 is absorbance at 475 nm in case the specimen was added, and OD2 is absorbance at 475 nm in case no specimen was added (blank).

In the case of `CCCCCCCCCCCCOS(=O)(=O)[O-].[Na+]` [sodium lauryl sulfate], the primary irritation index in the data set with skin is recorded as 4.0.
`OCC(O)CO` [Glycerol, glycerol]: the “Material retention percentage (moisture retention percentage)” value in data set [1] was determined as 139.1%. For the same molecule, the Moisture retention in data set [2] is recorded as 6.9%.
Regarding `O=c1cc(CO)occ1O` [Kojic acid, kojic acid], the Tyrosinase inhibition rate in data set [3] was 1.0.
